Laboratory results from paper PMC6780721, “GOBP1 Plays a Key Role in Sex Pheromones and Plant Volatiles Recognition in Yellow Peach Moth, Conogethes punctiferalis (Lepidoptera: Crambidae)” (Insects, 2019).
Where two headings read alike, the source gives them in different places.

Columns and labels:
GOBP1 = GOBP1 (Conogethes punctiferalis, UniProt A0A2H4FXX2); assay: Fluorescence competitive binding assay with 1-NPN, recombinant GOBP1; conditions: for Intensity (%) GOBP1: 1-NPN fluorescence remaining in competitive binding, 2 µM protein, 2 µM 1-NPN, triplicates; for interaction with GOBP1 (in words): fluorescence binding assays, sex pheromones
GOBP1, sequence (A0A2H4FXX2 entry or part of it): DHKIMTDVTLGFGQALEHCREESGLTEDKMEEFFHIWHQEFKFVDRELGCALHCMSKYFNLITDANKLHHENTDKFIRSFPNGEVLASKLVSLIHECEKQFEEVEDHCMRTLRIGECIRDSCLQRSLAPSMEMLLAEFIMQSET
From the text: (§1) Signal peptides were removed from complete ORF sequences of both genes and primers were designed, using antennal cDNA as the templates the GOBP1 and 2 were amplified and cloned using pEASY-T vector (TransGen Biotech, Beijing, China). The sense and antisense primers designed for GOBP1 and GOBP2. GOBP1 sense primers: 5′-[…]-3′ and antisense primer: 5′-[…]-3′ (BamH I and Hind III restriction sites are underlined); GOBP2 sense primer: 5′-[…]-3′ and antisense primer: 5′-[…]-3′ (EcoR I and Hind III restriction sites are underlined). The expected sequences were purified and cloned into the bacterial expression vector pET-30a (+) digested with the same enzymes. Then the plasmid was transformed into BL21 (DE3) competent cells (TransGen, Beijing, China) and the positive clone was inoculated in a liquid LB medium (4 L/protein) induced by 1 mM isopropyl-b-d-thiogalactoside (IPTG, Coollaber Science and Technology, Beijing, China) and placed in shaking incubator at 37 °C for 6 h. The induced bacterial cells were harvested from volume of 4 L liquid LB medium and centrifuged at 4 °C for 10 min (10,000 rpm). The pellets were subjected to ultrasonication and the recombinant GOBPs protein were purified by the Ni^2+-IDA column (His tagged) with a gradient concentration imidazole washing. The precipitate was resolved using 8 M carbamide and proteins were dialyzed in PBS buffer (pH 7.4) to remove the remaining chemical impurities from the protein. Purified protein concentrations of GOBP1 and GOBP2 was determined by the method of Bradford using BSA as standard The western blot method was performed to analyze the correct expression. […] The gel was sandwiched with a polyvinylidene fluoride (PVDF) membrane and sample in the gel was transferred to the PVDF (electrophoresis; 100 V, 200mA, 1 h). The film was washed four times using PBST (1% Tween-20 in 0.5 M Phosphate-buffered saline). 5% skim milk powder in PBST was used as blocking buffer. The PVDF membrane was incubated in primary antibody His (1:1000) and placed on shaker for overnight at 4 °C. The membrane was washed again using PBST and treated with second antibody sheep anti-rabbit antibody (1:5000) at 37 °C for 1 h. A final wash was given to the membrane and developed in ImageQuant LAS 4000 (GE, Pittsburgh, PA, USA) using western optimized HRP (horseradish peroxidase) reagent (Pierce, ELC kit, Thermoscientific, USA).
(§2) The fluorescence intensity was recorded on a FluoroMax-4 spectrophotometer (Horiba Scientific, Piscataway, NJ, USA) at room temperature using a 1 cm light path fluorimeter quartz cuvette. The fluorescent probe N-phenyl-1-naphthylamine (1-NPN) and all the tested chemicals were dissolved in HPLC purity methanol. The final concentration was prepared 2 mM. […] The fluorescence of 1-NPN was excited at 337 nm and emission spectra were recorded between […]. […] The GraphPad Prism 5 (GraphPad Software, Inc. San Diego, CA) was used to estimate the K1-NPN (KD of complex protein /1-NPN) values by nonlinear regression for a unique site of binding. It was assumed that the proteins were 100% active, with a stoichiometry of 1:1 (protein:ligand) at saturation. […] In the equation, [1-NPN] in the free concentration of 1-NPN, and K1-NPN is the dissociation constant of the complex protein/1-NPN.

GOBP2 = GOBP2 (Conogethes punctiferalis, UniProt A0A146JYY2); assay: Fluorescence competitive binding assay with 1-NPN, recombinant GOBP2; conditions: for Intensity (%) GOBP2: 1-NPN fluorescence remaining in competitive binding, 2 µM protein, 2 µM 1-NPN, triplicates
GOBP2, sequence (A0A146JYY2 entry or part of it): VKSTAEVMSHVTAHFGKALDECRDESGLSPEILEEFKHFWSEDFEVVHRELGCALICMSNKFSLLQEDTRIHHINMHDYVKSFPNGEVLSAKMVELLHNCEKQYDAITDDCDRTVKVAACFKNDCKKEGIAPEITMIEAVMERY
From the text: as §1, §2

[1] = dissociation constant calculated from IC50: KD = [IC50]/(1+[1-NPN]/K1-NPN), pH 7.4, mean ± SD, read-out: KD (μM) GOBP1
[2] = ligand concentration halving initial 1-NPN fluorescence, pH 7.4, mean ± SD, read-out: IC50 (μM) GOBP1
[3] = ligand concentration halving initial 1-NPN fluorescence, pH 7.4, mean ± SD, read-out: IC50 (μM) GOBP2
[4] = dissociation constant calculated from IC50: KD = [IC50]/(1+[1-NPN]/K1-NPN), pH 7.4, mean ± SD, read-out: KD (μM) GOBP2

SMILES	Intensity (%) GOBP1 (GOBP1; pH 7.4, mean ± SD) [%]	Kd (GOBP1; [1]) [µM]	IC50 (GOBP1; [2]) [µM]	Intensity (%) GOBP2 (GOBP2; pH 7.4, mean ± SD) [%]	IC50 (GOBP2; [3]) [µM]	Kd (GOBP1) [µM]	Kd (GOBP2) [µM]	IC50 (GOBP1) [µM]	IC50 (GOBP2) [µM]	Kd (GOBP2; [4]) [µM]	interaction with GOBP1 (in words) (GOBP1)
CCCCCO [1-Amyl alcohol]	95.2 ± 1.12	14.3 ± 1.74	33.5 ± 1.02	96.54 ± 1.39	98.7 ± 2.3						
c1ccc(Nc2cccc3ccccc23)cc1 [1-NPN, N-phenyl-1-naphthylamine, reference compound]						0.74 ± 0.41	0.7 ± 0.38				
CCCCCCCCCCCCCCO [1-Tetradecanol]	45.8 ± 0.56			85.52 ± 1.47		2.05 ± 0.43	22.3 ± 1.89	4.81 ± 0.72	54 ± 2.56		
O=Cc1ccccc1 [Benzaldehyde]	83.58 ± 6.61			94.76 ± 7.32		8.79 ± 0.59	31.9 ± 3.03	20.6 ± 1.31	77.1 ± 1.4		
C=C1CC/C=C(\C)CC[C@@H]2[C@@H]1CC2(C)C [Caryophllene]	68.98 ± 3.16	3.88 ± 0.91	9.09 ± 2.42	89.93 ± 2.15	21 ± 2.1					8.67 ± 1.12	
CC/C=C\CCO [Cis-3-hexen-1-ol]	94.99 ± 1.78			96.93 ± 0.99		33.5 ± 1.21	21.2 ± 1.14	78.63 ± 0.23	51.3 ± 1.6		
CCCCC/C=C/CCCCCCCCC=O [E10-16:Ald, (E)-10-hexadecenal]	47.29 ± 7.52	2.09 ± 0.45	4.9 ± 0.54	84.05 ± 2.25	21.4 ± 4.15					8.86 ± 0.93	can interact
CC(C)=CCC/C(C)=C/CC/C(C)=C/CO [Farnesol]	41.45 ± 2.51	0.35 ± 0.04	0.83 ± 0.09	55.64 ± 1.78	3.98 ± 0.36					1.64 ± 0.03	
CCCCCCC=O [Heptanal]	75.78 ± 5.17	5.76 ± 0.64	13.5 ± 3.22	96.80 ± 1.33	56 ± 1.54					23.1 ± 4.68	
CCCCCCCCCCCCCCCC=O [Hexadecanal]	48.64 ± 4.35	0.55 ± 0.08	1.29 ± 0.14	67.94 ± 1.79	21.1 ± 1.83					8.7 ± 0.74	
C=C(C)[C@H]1CC=C(C)CC1 [Limonene]	43.27 ± 2.47	1.54 ± 0.39	3.62 ± 0.89	92.62 ± 1.21	35.5 ± 1.14					14.7 ± 2.78	
C=CC(C)(O)CCC=C(C)C (centres unmarked) [Linalool]	74.52 ± 2.42			91.86 ± 0.71		6.7 ± 0.69	18.5 ± 0.48	15.7 ± 1.61	44.8 ± 1.16		
CCCCCCCCC=O [Nonanal]	71.04 ± 8.80	5.69 ± 0.36	13.3 ± 2.41	96.99 ± 2.63	92.8 ± 3.83					38.3 ± 1.09	
CCCCCCCCCCC=O [Undecanal]	78.33 ± 2.89	7.17 ± 0.67	16.8 ± 2.41	98.12 ± 1.92	96.7 ± 2.41					39.9 ± 9.7	
CCCCC/C=C\CCCCCCCCC=O [Z10-16:Ald, (Z)-10-hexadecenal]	20.88 ± 0.48	1.2 ± 0.09	2.82 ± 0.44	58.63 ± 2.72	8.65 ± 1.87					3.58 ± 0.62	can interact
CCCCCC=O [n-Hexanal]	45.50 ± 4.58	3.11 ± 0.71	7.31 ± 1.43	96.44 ± 1.50	68.1 ± 3.7					28.1 ± 0.62	
CCCCCCO [n-Hexanol]	97.23 ± 0.89	25.7 ± 0.43	60.4 ± 2.44	94.24 ± 1.82	95.2 ± 1.68						
CC1=CCC2CC1C2(C)C (stereo not drawn) [α-Pinene]	64.96 ± 3.26			98.57 ± 1.13		4.73 ± 0.48	28.1 ± 4.06	11.1 ± 3.47	67.9 ± 4.66		
C=C1CCC2CC1C2(C)C (stereo not drawn) [β-Pinene]	66.21 ± 2.96			97.15 ± 3.95		4.24 ± 0.69	13.9 ± 1.36	9.94 ± 2.72	33.7 ± 3.29		
